The source of these data is patent US10011592B2, “Polycyclic inhibitor of anaplastic lymphoma kinase” (XUANZHU PHARMA CO., LTD., priority 2014, dated 2018).

The term IC50 denotes the concentration at which inhibition is half-maximal. One may read the bioavailability as dose-corrected exposure relative to a reference, in per cent.

SMILES strings stand for the structures. Like-named read-outs stand apart in the source and are kept apart here.

Data set [1] deals with NCI-H2228. In words: In vitro cell activity, NCI-H2228, CTG detection. In kind it is cell-based. The following applies: Homo sapiens, read-out: cell-inhibiting activity IC50, NCI-H2228. As for the experimental part: Cells were digested with pancreatin. After centrifugation at 1000 rpm for 4 min, the supernatant was removed. […] The cell suspension (100 μL) was seeded to a 96-well plate to obtain a final cell density of 2000 cells/well.
(3.1) Preparation of test compound solutions: a suitable amount of test compound (please see the following table for sample weight) was weighed, and dissolved by adding a suitable amount of DMSO. The resultant mixture was mixed homogeneously, and diluted gradiently with DMSO to prepare a series of solutions of different concentrations, for later usage.
Solvent control: 0.5% DMSO.
(§1) Cell control: cell seeding only, with no addition of compound.
(§2) Blank control: medium, for zero setting in an instrument.
(3.3) The 96-well plate was cultured in a 37° C., 5% CO2 incubator for 96 h.
(1) 80 μL medium was removed from each well in the 96-well plate, and the plate was placed at room temperature for 30 min.
(2) 60 μL CellTiter-Glo® reagent was added to each test well in the 96-well plate.
(3) The 96-well plate was shaken for 2 min in dark to mix the mixture homogeneously in a microplate shaker, so as to lyse the cells.
(4) The 96-well plate was incubated in dark at room temperature for 10 min, to keep the light signal value stable.
(5) The results were read by Microplate Reader in luminescence mode.
IC50 calculation: cell inhibition rate (%)=(ODmaximal value−ODcompound)/(ODmaximal value−ODblank value)×100, wherein Graph prisim software is used in curve fitting to get IC50 value.
ODmaximal value: cell control with the addition of solvent and no compound, ODblank value: medium blank control.

Data set [2] relates to Karpas-299. In words: In vitro cell activity, Karpas-299, MTS detection. Conditions: Homo sapiens, read-out: cell-inhibiting activity IC50, Karpas-299. In kind it is cell-based. On the procedure:
(§3) Cells were digested with pancreatin. After centrifugation at 1000 rpm for 4 min, the supernatant was removed. […] The cell suspension (90 μL) was seeded to a 96-well plate to obtain a final cell density of 3000 cells/well; and then cultured in a 5% CO2, 37° C. incubator for 24 h.
(§4) Preparation of test compound solutions: a suitable amount of test compound (please see the following table for sample weight) was weighed, and diluted gradiently with DMSO to prepare a series of stock solutions of different concentrations (1000×test compound solution). Each of said stock solutions was further diluted by 100 folds with medium to obtain a 10×test compound solution.
(§5) Solvent control: 0.1% DMSO.
as §1, §2
(§6) (3.3) The 96-well plate was cultured in a 37° C., 5% CO2 incubator for 72h.
(§7) (1) The reagents in CellTiter 96®AQueous One Solution Cell Proliferation Assay (MTS) were placed at room temperature for 90 min.
(§8) (2) To each test well in the 96-well plate, 20 μL CellTiter 96® A Queous One Solution reagent was added.
(§9) (3) The 96-well plate was cultured in a 37° C., 5% CO2 incubator for 40 min.
(§10) (4) The results were read by Microplate Reader at 490 nm.
(§11) IC50 calculation: cell survival rate (%)=(ODsample value−ODblank value)/(ODmaximal value−ODblank value)×100, wherein Graph prisim software is used in curve fitting to get IC50 value.
(§12) ODmaximal value: cell control with the addition of solvent and no compound, ODblank value: blank control value.

The test system of data set [3] is NCI-H3122. In words: In vitro cell activity, NCI-H3122, MTS detection. It is filed as cell-based. The following applies: Homo sapiens, read-out: cell-inhibiting activity IC50, NCI-H3122. As for the experimental part: as §3, §4, §5, §1, §2, §6, §7, §8, §9, §10, §11, §12
The target in data set [4] is T1, ALK kinase (Homo sapiens, UniProt Q9UM73). The experiment in a line: In vitro ALK kinase-inhibiting activity (SA-XL665/tyrosine kinase antibody, 665 nm/615 nm read). It is filed as biochemical. Conditions: Experimental Example 1; 25° C., 30 min enzymatic reaction; read-out: ALK enzyme-inhibiting activity IC50. On the procedure: Preparation of ALK Kinase Buffer:
(§13) The resultant mixture was mixed homogeneously, for later usage.
as §13
Preparation of a stock solution of compound at a concentration of 1 mM: a suitable amount of compound (please see the following table for sample weight) was weighed, and dissolved by adding a suitable amount of DMSO. The resultant mixture was mixed homogeneously, for later usage.
Each of the 1 mM stock solutions was diluted with DMSO to a 200 μM solution, which was used as initial solution. Each of said initial solutions was 3-fold diluted with DMSO to prepare a series of solutions of different concentrations, and then the solution of each concentration was diluted with the ALK kinase buffer by 80 folds to prepare a 2.5×test compound solution.
Preparation of Other Reagents:
5×ALK kinase solution, 5×substrate solution, and 5×ATP solution, were prepared by using the ALK kinase buffer, for later usage.
1) 4 μL 2.5× test compound solution and 2 μL 5×ALK kinase solution were added to the corresponding wells in a 384-well plate, respectively, and incubated at 25° C. for 10 min.
2) To the corresponding wells, 2 μL 5× substrate solution and 2 μL 5×ATP solution were further added to start the enzymatic reaction, and incubation was performed at 25° C. for 30 min.
Detection buffer was used to prepare SA-XL665 at a desired concentration, which was then mixed homogeneously with the same volume of tyrosine kinase antibody. To the corresponding wells, 10 μL said antibody solution was added, and the reaction was stopped. Incubation was performed at 25° C. for 1 h.
IC50: Inhibition rate (%)=(maximal value-sample value)/(maximal value-minimal value)×100, wherein Graph prism software was used in curve fitting to get IC50 value.
Maximal value: positive control without addition of compound; minimal value: negative control without addition of enzyme.

Data set [5] addresses T1, ALK kinase. The experiment in a line: In vitro ALK kinase inhibitory activity by Caliper Mobility Shift assay. It is filed as biochemical. Conditions: Experimental Example 2, 28° C., 1 h, read-out: ALK enzyme-inhibiting activity IC50. The source says: Experimental method: Measurement of ALK kinase inhibitory activity by Caliper Mobility Shift assay.
1. Preparation of 1-Fold Kinase Buffer
2. Preparation of Stop Solution
3. Preparation of 5-Fold Test Compound Solutions:
Preparation of a DMSO stock solution of test compound: a suitable amount of compound (please see the following table for sample weight) was weighed, and dissolved by adding a suitable amount of DMSO. The resultant mixture was mixed homogeneously, for later usage.
Said DMSO stock solution of test compound was diluted with DMSO to a solution at a concentration of 50 μM, which was used as initial solution. Said initial solution was subjected to 4-fold gradient dilution with DMSO, and the solution at each concentration was 10-fold diluted with 1-fold kinase buffer to prepare a 5-fold test compound solution.
4. Preparation of Other Reagents:
2.5×ALK kinase solution and 2.5× polypeptide solution were prepared by using the 1-fold kinase buffer, for later usage.
1) 5 μL 5-fold test compound solution and 10 μL 2.5-fold kinase solution were added to the corresponding wells in a 384-well plate, and incubated at room temperature for 10 min.
The enzymatic reaction was started, and the incubation was performed at 28° C. for 1 h.
To the corresponding wells, 25 μL stop solution was added to stop the reaction. Data was read by Caliper device, and the inhibition rate was calculated by the data,
Inhibition rate (%)=(maximal value-sample value)/(maximal value-minimal value)×100, wherein XLFIT software was used in curve fitting to get IC50 value.
Maximal value: positive control without addition of test compound; minimal value: negative control without addition of enzyme.

The nature of data set [6]: Pharmacokinetics in rat. It is filed as in vivo. Conditions: plasma, iv 2 mg/kg, po 5 mg/kg. On the procedure:
Experimental Example 6 Assay on Pharmacokinetics of the Compounds Provided in Examples of the Invention in Rat
Test compounds: Compound 4, lab-made, the chemical name and preparation method of which can be found in the preparation example.
Internal standard: Alectinib, lab-made (prepared by reference to the method in Patent CN102459172A).
0.1% Tween 80+2% HPC: HPC (hydroxypropyl cellulose) (20 g) was weighed, and was added slowly to purified water (1000 mL) under stirring; Tween 80 (1 mL) was then added, and the resultant mixture was stirred until a clear solution was obtained, i.e. a blank solvent of 0.1% Tween 80+2% HPC.
A suitable amount of test compound (please see the following table for sample weight) was weighed, and said prepared solvent was added. The resultant mixture was placed in a tissue grinder, and was dispersed homogeneously at a rotation speed of 1000 r/min to get a solution for intragastric administration. […]
Protein precipitation method: to 30 μL plasma, 200 μL internal standard (acetonitrile solution containing 50 ng/mL Alectinib) was added; the resultant mixture was vortexed at 1000 r/min for 10 min, and then centrifuged at 4000 r/min for 20 min; to 100 μL supernatant, 100 μL water was added; the resultant mixture was mixed homogeneously under vortexing and analyzed by LC-MS/MS.

T1 sequence (Q9UM73 19-1620): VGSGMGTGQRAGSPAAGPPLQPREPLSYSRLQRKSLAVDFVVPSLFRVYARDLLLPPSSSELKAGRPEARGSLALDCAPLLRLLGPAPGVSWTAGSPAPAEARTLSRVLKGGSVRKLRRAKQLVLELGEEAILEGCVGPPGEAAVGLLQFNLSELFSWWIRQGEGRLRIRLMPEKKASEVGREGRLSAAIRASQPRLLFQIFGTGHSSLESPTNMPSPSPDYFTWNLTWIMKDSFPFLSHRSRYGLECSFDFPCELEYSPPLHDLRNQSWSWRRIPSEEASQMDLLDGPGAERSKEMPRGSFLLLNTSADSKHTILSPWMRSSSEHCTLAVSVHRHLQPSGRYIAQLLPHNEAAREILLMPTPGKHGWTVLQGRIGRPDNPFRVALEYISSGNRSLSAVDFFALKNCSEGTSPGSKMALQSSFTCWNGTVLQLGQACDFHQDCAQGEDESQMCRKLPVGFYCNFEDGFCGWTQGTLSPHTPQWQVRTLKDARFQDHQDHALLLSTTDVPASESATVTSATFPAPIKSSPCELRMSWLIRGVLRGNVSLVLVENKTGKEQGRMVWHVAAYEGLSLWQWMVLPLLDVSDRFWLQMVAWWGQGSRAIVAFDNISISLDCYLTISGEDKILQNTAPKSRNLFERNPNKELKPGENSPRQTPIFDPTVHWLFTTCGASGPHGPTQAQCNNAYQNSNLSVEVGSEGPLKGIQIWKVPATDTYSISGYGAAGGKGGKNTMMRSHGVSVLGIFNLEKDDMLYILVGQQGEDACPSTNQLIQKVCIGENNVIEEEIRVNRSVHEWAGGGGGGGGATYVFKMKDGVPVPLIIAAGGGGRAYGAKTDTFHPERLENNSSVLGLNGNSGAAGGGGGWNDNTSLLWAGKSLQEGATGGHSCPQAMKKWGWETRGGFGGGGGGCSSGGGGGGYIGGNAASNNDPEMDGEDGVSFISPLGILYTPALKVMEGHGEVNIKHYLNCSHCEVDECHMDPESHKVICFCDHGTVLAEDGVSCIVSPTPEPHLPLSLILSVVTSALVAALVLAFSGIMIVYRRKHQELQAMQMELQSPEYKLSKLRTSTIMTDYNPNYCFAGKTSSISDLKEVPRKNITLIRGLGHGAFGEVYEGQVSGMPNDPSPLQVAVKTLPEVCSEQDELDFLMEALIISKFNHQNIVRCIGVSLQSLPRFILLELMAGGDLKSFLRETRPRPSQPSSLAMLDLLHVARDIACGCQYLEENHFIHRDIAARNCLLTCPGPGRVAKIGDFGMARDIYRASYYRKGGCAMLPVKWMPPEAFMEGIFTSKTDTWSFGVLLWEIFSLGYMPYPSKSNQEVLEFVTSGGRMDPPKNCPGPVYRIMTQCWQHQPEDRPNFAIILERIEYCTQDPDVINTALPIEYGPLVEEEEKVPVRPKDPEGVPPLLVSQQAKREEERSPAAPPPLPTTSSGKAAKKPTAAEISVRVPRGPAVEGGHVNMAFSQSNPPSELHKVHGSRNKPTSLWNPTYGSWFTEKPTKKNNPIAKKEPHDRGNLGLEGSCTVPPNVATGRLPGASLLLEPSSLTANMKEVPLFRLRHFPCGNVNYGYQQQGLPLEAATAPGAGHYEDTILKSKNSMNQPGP

Regarding `Cc1cc(Nc2ncc(Cl)c(Nc3ccccc3S(=O)(=O)C(C)C)n2)c(OC(C)C)cc1C1CCNCC1` [Ceritinib, reference compound], the IC50 in data set [1] (NCI-H2228, 96 h) was determined as 48.1 nM; in data set [2] (KARPAS-299, 72 h), 30 nM; in data set [3] (NCI-H3122, 72 h) it was 138 nM.
In the case of `Cc1cc(Nc2ncc(Cl)c(Nc3ccccc3S(=O)(=O)C(C)C)n2)c2c(c1C1CCNCC1)OCO2` [Compound 1, 5-chloro-N^4-(2-(isopropylsulfonyl)phenyl)-N^2-(6-methyl-7-(piperidin-4-yl)benzo[d][1,3]dioxol-4-yl)pyrimidine-2,4-diamine], the IC50 in data set [1] (NCI-H2228, 96 h, CTG) came out at 3.21 nM; in data set [4] it was 0.2 nM; in data set [2] (KARPAS-299, 72 h, MTS), 0.7 nM; in data set [3] (NCI-H3122, 72 h, MTS), 10.9 nM.
As for `Cc1cc(Nc2ncc(Cl)c(Nc3ccccc3S(=O)(=O)C(C)C)n2)c2c(c1C1CNC1)OCCO2` [Compound 6, N^2-(8-(azetidin-3-yl)-7-methyl-2,3-dihydrobenzo[b][1,4]dioxin-5-yl)-5-chloro-N^4-(2-(isopropylsulfonyl)phenyl)pyrimidine-2,4-diamine], the IC50 in data set [5] was 0.45 nM; in data set [2] (KARPAS-299, 72 h, MTS), 9.92 nM; in data set [3] (NCI-H3122, 72 h, MTS) it was 61.7 nM.
`Cc1cc(Nc2ncc(Cl)c(Nc3ccccc3S(=O)(=O)C(C)C)n2)c2c(c1C1CCNC1)OCCO2` (stereo not drawn) [Compound 5, 5-chloro-N^4-(2-(isopropylsulfonyl)phenyl)-N^2-(7-methyl-8-(pyrrolidin-3-yl)-2,3-dihydrobenzo[b][1,4]dioxin-5-yl)pyrimidine-2,4-diamine]: the IC50 in data set [1] (NCI-H2228, 96 h, CTG) stood at 7.41 nM; in data set [5], 0.36 nM; in data set [2] (KARPAS-299, 72 h, MTS), 5.36 nM; in data set [3] (NCI-H3122, 72 h, MTS), 25.1 nM.
With `Cc1cc(Nc2ncc(Cl)c(Nc3ccccc3S(=O)(=O)C(C)C)n2)c2c(c1C1CCNCC1)OCCO2` [Compound 4, 5-chloro-N^4-(2-(isopropylsulfonyl)phenyl)-N^2-(7-methyl-8-(piperidin-4-yl)-2,3-dihydrobenzo[b][1,4]dioxin-5-yl)pyrimidine-2,4-diamine], the IC50 was 15.1 nM in data set [1] (NCI-H2228, 96 h, CTG); 0.9 nM in data set [4]; 0.71 nM in data set [2] (KARPAS-299, 72 h, MTS); 130 nM in data set [3] (NCI-H3122, 72 h, MTS). The same compound came in with a bioavailability in data set [6] of 30 to 50%.
With `Cc1cc(Nc2ncc(Cl)c(Nc3ccccc3S(=O)(=O)N(C)C)n2)c2c(c1C1CCNCC1)OCO2` [Compound 2, 2-((5-chloro-2-((6-methyl-7-(piperidin-4-yl)benzol[d][1,3]dioxol-4-yl)amino)pyrimidin-4-yl)amino)-N,N-dimethylbenzenesulfonamide], the IC50 in data set [1] (NCI-H2228, 96 h, CTG) came out at 5.47 nM; in data set [4], 1.7 nM; in data set [2] (KARPAS-299, 72 h, MTS), 7.66 nM; in data set [3] (NCI-H3122, 72 h, MTS) it was 4.18 nM.
The corresponding values for `Cc1cc(Nc2ncc(Cl)c(Nc3ccccc3S(=O)(=O)N(C)C)n2)c2c(c1C1CCNCC1)OCCO2` [Compound 3, 2-((5-chloro-2-((7-methyl-8-(piperidin-4-yl)-2,3-dihydrobenzo[b][1,4]dioxin-5-yl)amino)pyrimidin-4-yl)amino)-N,N-dimethylbenzenesulfonamide] are 1.72 nM, 0.6 nM, 0.164 nM and 43.2 nM.
On to `Cc1cc(Nc2ncc(Cl)c(Nc3ccccc3S(=O)(=O)C(C)C)n2)c2c(c1C1=CCNCC1)CCCO2` [Compound 8, 5-chloro-N^4-(2-(isopropylsulfonyl)phenyl)-N^2-(6-methyl-5-(1,2,3,6-tetrahydropyridine-4-yl)chroman-8-yl)pyrimidine-2,4-diamine], for which the IC50 is 0.54 nM in data set [5]; 5.18 nM in data set [2] (KARPAS-299, 72 h, MTS); 16.1 nM in data set [3] (NCI-H3122, 72 h, MTS).
